Measurements: patent publication US20250360091A1, “COMBINATION OF SGLT2 INHIBITOR AND MENTHOL AND USE THEREOF IN TREATMENT OF HEART DISEASE” (EAST CHINA UNIVERSITY OF SCIENCE AND TECHNOLOGY, priority 2023, published 2025)

System: H9c2 cells
Test: GD-induced injury: LDH release and crystal violet staining (Example 2)
Assay type: cell-based, Rat
Settings: empagliflozin 100 μM and 200 μM; GD 48 h
Protocol: To further verify the anti-heart failure efficacy of the drug composition, H9c2 cells were seeded into 24-well plates. After the cells covered the bottom of the dish, the high-glucose DMEM was removed, the plate was washed once with PBS, and empagliflozin alone and different concentrations of the drug composition were prepared with sugar-free and serum-free DMEM medium, and added to the cells for glucose deprivation treatment. For the GD group, sugar-free and serum-free DMEM medium without drugs was added. For the NG group, high-glucose DMEM containing serum was continued to be added for culture. After 48 hours of glucose deprivation treatment, 50 μL of culture medium was taken to a 96-well plate, and the release of LDH in the culture medium was detected using an LDH detection kit. The culture medium was removed, the cells were placed on ice, and washed twice with pre-cooled PBS for 3 to 5 minutes each time. The cells were fixed with pre-cooled methanol at −20° C. for 10 minutes. Methanol was removed and the cells were returned to room temperature. […] The cells were placed in a 37° C. oven for drying, photographed under a microscope, and the staining was quantified by Image J. The larger the purple area, the more cells survived, and the more LDH was released, which indicated more cell damage. […]

SMILES: OC[C@H]1O[C@@H](c2ccc(Cl)c(Cc3ccc(O[C@H]4CCOC4)cc3)c2)[C@H](O)[C@@H](O)[C@@H]1O [empagliflozin]
- cell survival rate (crystal violet purple area, LDH release): significantly increases the cell survival rate in a dose-dependent manner
